Assay results taken from the SangsterLogP compilation.

Experiment: method code SF-GLC, from DOI: 10.1007/bf00316585, PMID: 6732504
Work on CC(C)CCC#N yielded a logP of 1.54.
In the case of CCCC#N, the logP is reported as 0.53.
Work on N#CCCCl yielded a logP of 0.18.
C=C(C)C#N gave a logP of 0.68.
N#CCCl gave a logP of 0.23.
Compound CCCCCC#N has a logP of 1.66.
CCCCCCCC#N showed a logP of 2.75.
Compound N#CCCCCl has a logP of 0.56.
With CC(C)C#N the logP was 0.46.
C=CCC#N gave a logP of 0.4.
With CCCCCCCCC#N the logP was 3.12.
In the case of N#CCCO, the logP is reported as -0.94.
